Key:
[1] = tested on: IgE; experiment: ED50 for inhibition of IgE calculated from the examples; type: in vivo, mouse; conditions: dose to achieve 50% inhibition of IgE
Protocol: From the data in the above examples, the effective dose of each prostaglandin to achieve 50% inhibition of IgE (ED50) was calculated.

[2] = tested on: IgE; experiment: Serum IgE response induced by FF1-4D5 + H∂A1 anti-IgD antibodies (ELISA, Assay A / Assay F); type: in vivo, mouse (Balb/c female)
Protocol: Mouse hybridoma cells expressing either FF1-4D5 antibody or H∂A1 antibody are thawed, established in culture, and incubated in mice as ascite tumors. FF1-4D5 antibody is a mouse IgG2a monoclonal antibody of the b allotype that binds the Fd fragment of the ∂ chain of the a allotype IgD which activates β cells through antigen internalization and processing, promoting cognate interactions with antigen-specific T cells (D. K. Goroff et al., J. Immunol. 136: 2382 (1986)). H∂A1 antibody is a mouse IgG2b of the b allotype that binds the Fc fragment of the ∂ chain of the a allotype IgD which activates β cells through crosslinking IgD (I. M. Zitron and B. L. Clevinger, J. Exp. Med. 152: 1135 (1980)). Each antibody is purified from their respective ascites tumor fluid. […] Serum from the injected mice is recovered and the mean concentration of IgE determined.
Serum levels of IgE are determined and IgE levels are shown to be inhibited in a dose dependent manner.
ELISA (enzyme linked immunosorbant assay) measurements of IgE are as follows. About 5 μg of B1E3 antibody in 100 μl borate buffered saline (pH8.5) is added to wells of a NuncImmulon II 96 well plate (DiRuscio & Assoc., St. Louis, Mo.) at 37° C. for 90 minutes. The non-bound antibody is removed by flicking the plate. Unreacted sites on the plastic plate are blocked by adding about 200 μl of a 2% solution of newborn bovine serum (NBS) in PBS at 37° C. for 60 minutes. The standard IgE (or an unknown murine serum sample) is diluted to between about 4 ng/ml-256 ng/ml in Hanks-HS (20 mM Hepes, 2% NBS in Hanks Balanced Salt Solution, Gibco, Grand Island, N.Y.) or to 1/200 to 1/1000 in Hanks-HS respectively. 100 μl of standard (or unknown dilutions) are added in triplicate to the wells of the plate and allowed to absorb to B1E3 antibody at about 37° C. for 2-4 hours. The solution is removed by flicking the plate and each well is washed with about 0.5 ml 0.05% Tween 20-PBS 5 times. About 100 μl of biotinylated R1E4, called the primary antibody, diluted to 200 ng/ml is added to all wells and incubated at about 4° C. overnight. The solution is removed by flicking the plate and washed 5 times as described above. The developing reagent (Avidin and biotin-horse radish peroxidase) is incubated in 2% NBS in PBS at ambient temperature for 30 minutes, according to manufacturer's specifications (Vector Laboratories, Burlingame, Calif.). About 100 μl of developing reagent is added to each well and incubated at ambient temperature for 30 minutes. Colorimetric substrate for the developing reagent (ABTS peroxidase substrate system, KPL, Gaithersburg, Md.) is prepared by mixing equal volumes of solutions A and B and incubating at ambient temperature for 60 minutes. The developing reagent solution is removed by flicking the plate and washed 5 times as described above. About 100 μl of the mixture of substrates is added to each well and incubated at ambient temperature for 60 minutes. The optical density of each well is determined on a BioTek ELISA reader (Biotek Instruments, Inc., Burlington, Vermont) and the absorbance data transferred electronically to a DEC VAX mainframe computer. A standard curve is fitted to the IgE standard optical densities using straight line, linear regression statistical fits. IgE in the unknown serum samples is determined by comparing the optical density of the unknown to the standard curve and multiplying that number by the dilution of serum used in the assay.
Stimulation of a transient serum IgE response in mouse with two monoclonal antibodies directed against IgD is carried out as follows.
Mouse hybridoma cells expressing either FF1-4D5 antibody or H∂Al antibody are thawed, established in culture, and incubated in CB6 F1 female mice as an ascites tumor and each immunoglobulin is purified from the ascites fluid as described above. […]

[3] = Diarrheal effects in rats; conditions: rat, in vivo, po
Protocol: Briefly, adult Charles River male rats weighing 210-230 g were individually housed and fasted with water available ad libitum for 24 hours prior to the test. The animals (N=6-12) received logarithmically graded prostaglandin doses orally. Immediately after administration, the animals were returned to their cages, and diarrhea, if any, was assessed on an all or none basis for 8 hours after drug treatment. The ED50 and relative potency values were calculated by the logistic method of Berkson.

[4] = tested on: IgG1; experiment: Serum IgG1 in anti-IgD stimulated mice (two site sandwich ELISA, Assay B); type: in vivo, mouse (Balb/c female); conditions: 40 μg days 3 and 4; for IgG1 ± SD: Table 11
[5] = tested on: IgG2a; experiment: Serum IgG2a in anti-IgD stimulated mice (two site sandwich ELISA, Assay C); type: in vivo, mouse (Balb/c female); conditions: 40 μg days 3 and 4; for IgG2a ± SD: Table 11
Protocol: Sera from mice treated with compounds in accordance with the method of the invention are analyzed for levels of IgG1, IgG2a, IgG3, and IgM.
Measurement of mouse IgG2a by a two site sandwich ELISA is performed in substantial accordance with the teaching of Assay B except with the following changes. NuncImmulon II plates are used in this assay. The IgG2a standard is purchased from Southern Biotech. The standard curve is linear between 4-250 ng/ml. Serum containing IgG2a is diluted 1/6400 to 1/1,000,000. About a 1/6,000 dilution of goat anti mouse IgG2a (Southern Biotech) conjugated to alkaline phosphatase is used.
Sera from the mice described in Example 13 are analyzed for the levels of IgG1, IgG2a, and IgG3 by Assays B, C, and D, respectively.
Two groups of 4 Balb/c female mice per group are injected with both 100 μg FF1-4D5 antibody and 100 μg H∂A1 antibody. One of these groups is a stimulated control designated Group B. On day 3 and 4, the other group is injected with 40 μg (±) methyl 11α, 16-dihydroxy-1-methyl-9-oxoprosta-4Z,13E-dien-1-oate. Another group is injected with only PBS as an unstimulated control (Group A). On day -1 and 8, 50-100 μl of serum is recovered and analyzed for IgE, IgG1 and IgG2a by Assays A, B, and C, respectively.
3 groups of 4 Balb/c female mice per group are injected with both 100 μg FF1-4D5 antibody and 100 μg H∂A1 antibody on day 0. Group A is given no further treatment. On day 3 and 4, one group of mice is injected with 20 μg (±) methyl 2-[2-[3R-3α-hydroxy-2β-(4-hydroxy-4-methyl-1E-octenyl-5-oxo-1α-cyclopentyl]-methyl]cyclopropanebutanoate (Group B) and another group with 20 μg (±) methyl 2-[2-[3R-3α-hydroxy-2β-(4-hydroxy-4-methyl-1E-octenyl)-5-oxo-1α-cyclopentyl]ethyl]cyclopropanepropanoate (Group C) as in Example 13. On day -1 and 8, 50-100 μl of serum is recovered and analyzed for IgE, IgG1, IgG2a and IgG3 by Assays A, B, C and D, respectively. The selectivity of inhibition of IgE is shown in Table 12.
Three groups of 5 Balb/c female mice per group are injected with both 100 μg FF1-4D5 antibody and 100 μg H∂A1 antibody on day 0. Group A is a control with no further treatment. On day 3 and 4, the mice are injected with 20 μg (±) methyl 11α,16-dihydroxy-4,4,16-trimethyl-9-oxoprosta-13E-en-1-oate (Group B) or 20 μg (±) methyl 11α,16-dihydroxy-16-methyl-9-oxoprosta-3,5Z,13E-trien-1-oate (Group C) as in Example 13. On day -1 and 8, […] of serum is recovered and analyzed for IgE, IgG1, IgG2a, IgG3 and IgM by Assays A, B, C, D and E, respectively.

[6] = Table 15, 20 μg days 3 and 4, day 8 (control 5090)
[7] = Table 15, 20 μg days 3 and 4, day -1 baseline before treatment
[8] = Table 16, 10 μg days 3 and 4, day 8 (control 8548)
[9] = Table 16, 10 μg days 3 and 4, day -1 baseline before treatment
[10] = day -1 baseline before treatment

Row | Compound | ED50 IgE Inhibition [1] | de novo IgE synthesis ([2]; 20 μg days 3 and 4, Example 26) | IgE ± SD [2, 6] | IgE ± SD [2, 7] | de novo IgE synthesis ([2]; 10 μg days 3 and 4, Example 27) | IgE ± SD [2, 8] | IgE ± SD [2, 9] | TD50 at 8 h [3] | further results
1 | CCCCC(C)(O)C/C=C/[C@H]1[C@H](O)CC(=O)[C@@H]1CCCCCCC(=O)Oc1ccc(NC(C)=O)cc1 (mixture of isomers) [(±) 4-(acetylamino)phenyl-11α,16-dihydroxy-16-methyl-9-oxoprost-13E-en-1-oate] | 1.0 μg/mouse/TID | inhibit de novo IgE synthesis | 1880 ± 319 ng/mL | < 800 ng/mL |  |  |  |  | 
2 | CCCCC(C)(O)C/C=C/[C@H]1[C@H](O)CC(=O)[C@@H]1CCCCCCC(=O)O (mixture of isomers) [(±) 11α,16-dihydroxy-16-methyl-9-oxo-prost-13E-en-1-oic acid] |  | inhibit de novo IgE synthesis | 1499 ± 132 ng/mL | 1029 ± 362 ng/mL |  |  |  |  | 
3 | CCCCC(C)(O)C/C=C/[C@H]1[C@H](O)CC(=O)[C@@H]1CCCCCCC(=O)OC (mixture of isomers) [(±) methyl 11α,16-dihydroxy-16-methyl-9-oxoprost-13E-en-1-oate] | 1.5 μg/mouse/TID |  |  |  | inhibit de novo IgE synthesis | 2123 ± 257 ng/mL | < 1600 ng/mL | 0.36 mg/kg | 
4 | CCCCC(C)(O)C/C=C/[C@H]1[C@H](O)CC(=O)[C@@H]1CC/C=C\CCC(=O)OC (mixture of isomers) [(±) methyl 11α,16-dihydroxy-16-methyl-9-oxoprosta-4Z,13E-dien-1-oate] | 4.0 μg/mouse/TID |  |  |  |  |  |  | 0.049 mg/kg | de novo IgE synthesis ([2]; 40 μg days 3 and 4): inhibits de novo IgE synthesis; IgE ± SD ([2]; Table 11, 40 μg days 3 and 4, day 8 (control 15890)): 3973 ± 905 ng/mL; IgE ± SD ([2]; Table 11, 40 μg days 3 and 4, day -1 baseline before treatment): 1717 ± 313 ng/mL; effect on IgG1 [4]: does not effect IgG1 or IgG2a; IgG1 ± SD ([4]; day 9 (control 19800)): 37728 ± 6913 µg/mL; IgG1 ± SD [4, 10]: 2331 ± 2212 µg/mL; effect on IgG2a [5]: does not effect IgG1 or IgG2a; IgG2a ± SD ([5]; day 9 (control 1056)): 1058 ± 202 µg/mL; IgG2a ± SD [5, 10]: 160 ± 130 µg/mL
5 | CCCCC(C)(O)CCC[C@H]1[C@H](O)CC(=O)[C@@H]1CCCCCCC(=O)OC (mixture of isomers) [(±) methyl-11α,16-dihydroxy-16-methyl-9-oxoprostan-1-oate] | 4.8 μg/mouse/TID |  |  |  | inhibit de novo IgE synthesis | 3844 ± 238 ng/mL | < 1600 ng/mL |  | 
6 | CCCCC(C)(O)C/C=C/[C@H]1[C@H](O)CC(=O)[C@@H]1CCCCCCC(=O)OC(C)C (relative stereo) [(±) methylethyl-11α,16-dihydroxy-16-methyl-9-oxoprost-13E-en-1-oate] | 1.5 μg/mouse/TID |  |  |  |  | 2127 ± 149 ng/mL | < 1600 ng/mL |  | 

From patent US5157052A, “Method for inhibiting IgE production” (priority 1990, dated 1992)
